How the values were obtained:
barnyardgrass [1] = assay: Test A pre-/postemergence herbicide test; format: in vivo, Echinochloa crus-galli
Procedure, shortened: (§1)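 Visual injury ratings, 0 = no effect, 100 = complete control, taken ~10 days after treatment against untreated greenhouse controls. Preemergence: directed soil spray onto seeded loam/sand pots. Postemergence: spray onto plants at one- to two-leaf stage, 2–10 cm tall.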

crabgrass, large = assay: Test A pre-/postemergence herbicide test; format: in vivo, Digitaria sanguinalis
Procedure, shortened: as §1

giant foxtail = assay: Test A pre-/postemergence herbicide test; format: in vivo, Setaria faberii
Procedure, shortened: as §1

morningglory = assay: Test A pre-/postemergence herbicide test; format: in vivo, Ipomoea spp.
Procedure, shortened: as §1

pigweed = assay: Test A pre-/postemergence herbicide test; format: in vivo, Amaranthus retroflexus
Procedure, shortened: as §1

velvetleaf = assay: Test A pre-/postemergence herbicide test; format: in vivo, Abutilon theophrasti
Procedure, shortened: as §1

wheat = assay: Test A pre-/postemergence herbicide test; format: in vivo, Triticum aestivum
Procedure, shortened: as §1

corn = assay: Test A pre-/postemergence herbicide test; format: in vivo, Zea mays
Procedure, shortened: as §1

rice = assay: Test C flooded paddy test; format: in vivo, Oryza sativa; settings: Flood
Procedure, shortened: (§2)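 Plants grown to the 2-leaf stage; pots flooded to 3 cm above soil and compound applied directly into the paddy water, depth kept throughout. Greenhouse 13 to 15 days, then visual rating vs untreated controls on 0–100 scale (0 no effect, 100 complete control); dash means no result.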

sedge, umbrella = assay: Test C flooded paddy test; format: in vivo, Cyperus difformis; settings: Flood
Procedure, shortened: as §2

ducksalad = assay: Test C flooded paddy test; format: in vivo, Heteranthera limosa; settings: Flood
Procedure, shortened: as §2

barnyardgrass [2] = assay: Test C flooded paddy test; format: in vivo, Echinochloa crus-galli; settings: Flood
Procedure, shortened: as §2

[3] = Postemergence, 1000 g ai/ha, 0 to 100 scale (0 no effect, 100 complete control)
[4] = Preemergence, 1000 g ai/ha, visual rating on 0 to 100 scale (0 no effect, 100 complete control), approx. 10 days
[5] = 31 g ai/ha, scale of 0 to 100 where 0 is no effect and 100 is complete control, 13 to 15 days
[6] = 62 g ai/ha, scale of 0 to 100 where 0 is no effect and 100 is complete control, 13 to 15 days
[7] = 125 g ai/ha, scale of 0 to 100 where 0 is no effect and 100 is complete control, 13 to 15 days
[8] = Postemergence, 125 g ai/ha, 0 to 100 scale, 0 no effect, 100 complete control
[9] = Postemergence, 500 g ai/ha, 0 to 100 scale (0 no effect, 100 complete control)
[10] = Preemergence, 125 g ai/ha, visual rating on 0 to 100 scale (0 no effect, 100 complete control)
[11] = preemergence, 500 g ai/ha, 0 to 100 scale

O=C1NCC(c2ccc(F)c(F)c2)C1C(=O)Nc1ccccc1[N+](=O)[O-] (racemic) [Compound 20]
80: Plant response rating, Barnyardgrass (barnyardgrass [1]; [3]) | Plant response rating, Foxtail, Giant (giant foxtail; [3])
30: Plant response rating, Velvetleaf (velvetleaf; [4])
0: Plant response rating, Morningglory (morningglory; [3]) | Plant response rating, Morningglory (morningglory; [4]) | Plant response rating, Pigweed (pigweed; [3]) | Plant response rating, Pigweed (pigweed; [4]) | Plant response rating, Velvetleaf (velvetleaf; [3]) | Plant response rating, Wheat (wheat; [4]) | Plant response rating, Corn (corn; [3]) | Plant response rating, Corn (corn; [4]) | Plant response rating, Rice (rice; [5]) | Plant response rating, Rice (rice; [6]) | Plant response rating, Rice (rice; [7]) | Plant response rating, Rice (rice; 250 g ai/ha, scale 0 to 100) | Plant response rating, Sedge, Umbrella (sedge, umbrella; [5]) | Plant response rating, Sedge, Umbrella (sedge, umbrella; [6]) | Plant response rating, Sedge, Umbrella (sedge, umbrella; [7]) | Plant response rating, Sedge, Umbrella (sedge, umbrella; 250 g ai/ha, scale 0 to 100) | Plant response rating, Ducksalad (ducksalad; [5]) | Plant response rating, Ducksalad (ducksalad; [6]) | Plant response rating, Ducksalad (ducksalad; [7]) | Plant response rating, Ducksalad (ducksalad; 250 g ai/ha, scale 0 to 100) | Plant response rating, Barnyardgrass (barnyardgrass [2]; [5]) | Plant response rating, Barnyardgrass (barnyardgrass [2]; [6]) | Plant response rating, Barnyardgrass (barnyardgrass [2]; [7]) | Plant response rating, Barnyardgrass (barnyardgrass [2]; 250 g ai/ha, scale 0 to 100)
90: Plant response rating, Barnyardgrass (barnyardgrass [1]; [4]) | Plant response rating, Crabgrass, Large (crabgrass, large; [3]) | Plant response rating, Crabgrass, Large (crabgrass, large; [4]) | Plant response rating, Foxtail, Giant (giant foxtail; [4])
20: Plant response rating, Wheat (wheat; [3])

O=C1NCC(c2ccc(F)c(F)c2)C1C(=O)Nc1ccc(F)cc1F (racemic) [Compound 23]
40: Plant response rating, Velvetleaf (velvetleaf; [3]) | Plant response rating, Velvetleaf (velvetleaf; [4])
0: Plant response rating, Morningglory (morningglory; [3]) | Plant response rating, Morningglory (morningglory; [4]) | Plant response rating, Pigweed (pigweed; [3]) | Plant response rating, Wheat (wheat; [3]) | Plant response rating, Wheat (wheat; [4]) | Plant response rating, Corn (corn; [3]) | Plant response rating, Corn (corn; [4]) | Plant response rating, Rice (rice; [6]) | Plant response rating, Rice (rice; 250 g ai/ha, scale 0 to 100) | Plant response rating, Sedge, Umbrella (sedge, umbrella; [6]) | Plant response rating, Barnyardgrass (barnyardgrass [2]; [6]) | Plant response rating, Barnyardgrass (barnyardgrass [2]; 250 g ai/ha, scale 0 to 100)
100: Plant response rating, Ducksalad (ducksalad; 250 g ai/ha, scale 0 to 100)
80: Plant response rating, Crabgrass, Large (crabgrass, large; [3]) | Plant response rating, Foxtail, Giant (giant foxtail; [3])
30: Plant response rating, Sedge, Umbrella (sedge, umbrella; 250 g ai/ha, scale 0 to 100) | Plant response rating, Ducksalad (ducksalad; [6])
90: Plant response rating, Barnyardgrass (barnyardgrass [1]; [3]) | Plant response rating, Barnyardgrass (barnyardgrass [1]; [4]) | Plant response rating, Crabgrass, Large (crabgrass, large; [4]) | Plant response rating, Foxtail, Giant (giant foxtail; [4])

O=C1NCC(c2ccc(Cl)c(Cl)c2)C1C(=O)Nc1ccccc1C(F)(F)F (racemic) [Compound 26]
80: Plant response rating, Ducksalad (ducksalad; 250 g ai/ha, scale 0 to 100)
60: Plant response rating, Crabgrass, Large (crabgrass, large; [3])
90: Plant response rating, Crabgrass, Large (crabgrass, large; [4]) | Plant response rating, Foxtail, Giant (giant foxtail; [4])
70: Plant response rating, Barnyardgrass (barnyardgrass [1]; [3]) | Plant response rating, Barnyardgrass (barnyardgrass [1]; [4]) | Plant response rating, Foxtail, Giant (giant foxtail; [3])
0: Plant response rating, Morningglory (morningglory; [3]) | Plant response rating, Morningglory (morningglory; [4]) | Plant response rating, Pigweed (pigweed; [3]) | Plant response rating, Pigweed (pigweed; [4]) | Plant response rating, Velvetleaf (velvetleaf; [3]) | Plant response rating, Velvetleaf (velvetleaf; [4]) | Plant response rating, Wheat (wheat; [3]) | Plant response rating, Wheat (wheat; [4]) | Plant response rating, Corn (corn; [3]) | Plant response rating, Corn (corn; [4]) | Plant response rating, Rice (rice; [6]) | Plant response rating, Rice (rice; 250 g ai/ha, scale 0 to 100) | Plant response rating, Sedge, Umbrella (sedge, umbrella; [6]) | Plant response rating, Sedge, Umbrella (sedge, umbrella; 250 g ai/ha, scale 0 to 100) | Plant response rating, Ducksalad (ducksalad; [6]) | Plant response rating, Barnyardgrass (barnyardgrass [2]; [6]) | Plant response rating, Barnyardgrass (barnyardgrass [2]; 250 g ai/ha, scale 0 to 100)

O=C1NCC(c2ccc(Cl)c(Cl)c2)C1C(=O)Nc1cccc(F)c1 (racemic) [Compound 27]
60: Plant response rating, Foxtail, Giant (giant foxtail; [3])
0: Plant response rating, Morningglory (morningglory; [3]) | Plant response rating, Morningglory (morningglory; [4]) | Plant response rating, Pigweed (pigweed; [3]) | Plant response rating, Pigweed (pigweed; [4]) | Plant response rating, Velvetleaf (velvetleaf; [3]) | Plant response rating, Velvetleaf (velvetleaf; [4]) | Plant response rating, Wheat (wheat; [3]) | Plant response rating, Wheat (wheat; [4]) | Plant response rating, Corn (corn; [3]) | Plant response rating, Corn (corn; [4]) | Plant response rating, Rice (rice; [6]) | Plant response rating, Rice (rice; 250 g ai/ha, scale 0 to 100) | Plant response rating, Sedge, Umbrella (sedge, umbrella; [6]) | Plant response rating, Sedge, Umbrella (sedge, umbrella; 250 g ai/ha, scale 0 to 100) | Plant response rating, Ducksalad (ducksalad; [6]) | Plant response rating, Barnyardgrass (barnyardgrass [2]; [6]) | Plant response rating, Barnyardgrass (barnyardgrass [2]; 250 g ai/ha, scale 0 to 100)
90: Plant response rating, Crabgrass, Large (crabgrass, large; [4]) | Plant response rating, Foxtail, Giant (giant foxtail; [4])
70: Plant response rating, Barnyardgrass (barnyardgrass [1]; [3]) | Plant response rating, Barnyardgrass (barnyardgrass [1]; [4]) | Plant response rating, Crabgrass, Large (crabgrass, large; [3])
30: Plant response rating, Ducksalad (ducksalad; 250 g ai/ha, scale 0 to 100)

O=C1NCC(c2ccsc2)C1C(=O)Nc1ccccc1C(F)(F)F (racemic) [Compound 28]
30: Crabgrass, Large plant response rating (crabgrass, large; [10]) | Plant response rating, Ducksalad (ducksalad; [6])
40: Plant response rating, Crabgrass, Large (crabgrass, large; [9]) | Plant response rating, Ducksalad (ducksalad; [7])
0: Plant response rating, Barnyardgrass (barnyardgrass [1]; [8]) | Plant response rating, Barnyardgrass (barnyardgrass [1]; [9]) | Barnyardgrass plant response rating (barnyardgrass [1]; [10]) | Plant response rating, Foxtail, Giant (giant foxtail; [8]) | Plant response rating, Foxtail, Giant (giant foxtail; [9]) | Foxtail, Giant plant response rating (giant foxtail; [10]) | Plant response rating, Morningglory (morningglory; [8]) | Plant response rating, Morningglory (morningglory; [9]) | Morningglory plant response rating (morningglory; [10]) | Plant response rating, Morningglory (morningglory; [11]) | Plant response rating, Pigweed (pigweed; [8]) | Plant response rating, Pigweed (pigweed; [9]) | Pigweed plant response rating (pigweed; [10]) | Plant response rating, Pigweed (pigweed; [11]) | Plant response rating, Velvetleaf (velvetleaf; [9]) | Velvetleaf plant response rating (velvetleaf; [10]) | Plant response rating, Velvetleaf (velvetleaf; [11]) | Plant response rating, Wheat (wheat; [8]) | Plant response rating, Wheat (wheat; [9]) | Wheat plant response rating (wheat; [10]) | Plant response rating, Wheat (wheat; [11]) | Plant response rating, Corn (corn; [8]) | Plant response rating, Corn (corn; [9]) | Corn plant response rating (corn; [10]) | Plant response rating, Corn (corn; [11]) | Plant response rating, Rice (rice; [5]) | Plant response rating, Rice (rice; [6]) | Plant response rating, Rice (rice; [7]) | Plant response rating, Rice (rice; 250 g ai/ha, scale 0 to 100) | Plant response rating, Sedge, Umbrella (sedge, umbrella; [5]) | Plant response rating, Sedge, Umbrella (sedge, umbrella; [6]) | Plant response rating, Sedge, Umbrella (sedge, umbrella; [7]) | Plant response rating, Sedge, Umbrella (sedge, umbrella; 250 g ai/ha, scale 0 to 100) | Plant response rating, Barnyardgrass (barnyardgrass [2]; [5]) | Plant response rating, Barnyardgrass (barnyardgrass [2]; [6]) | Plant response rating, Barnyardgrass (barnyardgrass [2]; [7]) | Plant response rating, Barnyardgrass (barnyardgrass [2]; 250 g ai/ha, scale 0 to 100)
20: Plant response rating, Barnyardgrass (barnyardgrass [1]; preemergence, 500 g ai/ha, 0 to 100 scale (0 no effect, 100 complete control)) | Plant response rating, Crabgrass, Large (crabgrass, large; [8]) | Plant response rating, Foxtail, Giant (giant foxtail; [11]) | Plant response rating, Ducksalad (ducksalad; [5])
85: Plant response rating, Ducksalad (ducksalad; 250 g ai/ha, scale 0 to 100)
80: Plant response rating, Crabgrass, Large (crabgrass, large; [11])

— patent publication US10294202B2, “Pyrrolidinones as herbicides” (FMC Corporation, priority 2013, dated 2019)
